Laboratory results as given in ChEMBL document CHEMBL3774337, “In vivo phase II-enzymes inducers, as potential chemopreventive agents, based on the chalcone and furoxan skeletons” (Bioorg Med Chem, 2016).
Activity calls are given as the source filed them. No cut-off for these calls is given here.

Columns and labels:
Rattus norvegicus [1] = experiment: Induction of CYP450 activity in microsomal fraction of Wistar rat liver at 15 mg/kg/day, po for two weeks using 7-ethoxyresorufine as substrate measured for 5 mins relative to control; type: ADME, organism-based; conditions: in vivo
Rattus norvegicus [2] = experiment: Toxicity in Wistar rat assessed as change in behaviors at 15 mg/kg/day, po for two weeks; type: organism-based; conditions: in vivo
Mus musculus [3] = species on record: Mus musculus; experiment: Ratio of induction of quinone reductase specific activity in mouse mutant BpRc1 cells to mouse Hepa1c1c7 cells; type: cell-based
[4] = Chemoprotective index, ratio of IC50 for mouse Hepa1c1c7 cells to CD for quinone reductase activity in mouse Hepa1c1c7 cells
Mus musculus [5] = species on record: Mus musculus; experiment: Induction of quinone reductase specific activity in mouse Hepa1c1c7 cells assessed as concentration required to double enzyme specific activity using 2,6-DCIP as substrate measured for 1 min; type: cell-based
[6] = Toxicity in Wistar rat assessed as survival at 15 mg/kg/day, po for two weeks; type: organism-based; conditions: in vivo
MCF7 = experiment: Cytotoxicity against human MCF7 cells at 100 uM after 24 hrs by SRB assay; type: functional, cell-based
[7] = Chemoprotective index, ratio of IC50 for mouse mutant BpRc1 cells to CD for quinone reductase activity in mouse mutant BpRc1 cells
Rattus norvegicus [8] = experiment: Induction of quinone reductase activity in cytosolic fraction of Wistar rat colon at 15 mg/kg/day, po for two weeks using 2,6-DCIP as substrate at 10 uM measured for 1 min relative to control; type: functional
HT-29 = experiment: Cytotoxicity against human HT-29 cells at 100 uM after 24 hrs by SRB assay; type: functional, cell-based
Rattus norvegicus [9] = experiment: Induction of quinone reductase activity in cytosolic fraction of Wistar rat liver at 15 mg/kg/day, po for two weeks using 2,6-DCIP as substrate measured for 1 min relative to control; type: functional
Rattus norvegicus [10] = experiment: Induction of CYP450 activity in microsomal fraction of Wistar rat colon at 15 mg/kg/day, po for two weeks using 7-ethoxyresorufine as substrate measured for 5 mins; type: ADME, organism-based; conditions: in vivo
Mus musculus [11] = species on record: Mus musculus; experiment: Induction of quinone reductase activity in mouse mutant BpRc1 cells using 2,6-DCIP as substrate measured for 1 min; type: cell-based
Rattus norvegicus [12] = experiment: Induction of glutathione S-transferase activity in cytosolic fraction of Wistar rat liver at 15 mg/kg/day, po for two weeks using CDNB as substrate measured for 1 min relative to control; type: functional
Rattus norvegicus [13] = experiment: Toxicity in Wistar rat assessed as change in body weight at 15 mg/kg/day, po for two weeks; type: organism-based; conditions: in vivo
[14] = biological target: T1, Nuclear factor erythroid 2-related factor 2 (Mus musculus) (UniProt Q60795); experiment: Induction of Nrf2 nuclear translocation in mouse Hepa1c1c7 cells assessed as protein accumulation in nucleus at 20 uM by DAPI staining based immunofluorescence assay; type: cell-based
T1 sequence (whole entry): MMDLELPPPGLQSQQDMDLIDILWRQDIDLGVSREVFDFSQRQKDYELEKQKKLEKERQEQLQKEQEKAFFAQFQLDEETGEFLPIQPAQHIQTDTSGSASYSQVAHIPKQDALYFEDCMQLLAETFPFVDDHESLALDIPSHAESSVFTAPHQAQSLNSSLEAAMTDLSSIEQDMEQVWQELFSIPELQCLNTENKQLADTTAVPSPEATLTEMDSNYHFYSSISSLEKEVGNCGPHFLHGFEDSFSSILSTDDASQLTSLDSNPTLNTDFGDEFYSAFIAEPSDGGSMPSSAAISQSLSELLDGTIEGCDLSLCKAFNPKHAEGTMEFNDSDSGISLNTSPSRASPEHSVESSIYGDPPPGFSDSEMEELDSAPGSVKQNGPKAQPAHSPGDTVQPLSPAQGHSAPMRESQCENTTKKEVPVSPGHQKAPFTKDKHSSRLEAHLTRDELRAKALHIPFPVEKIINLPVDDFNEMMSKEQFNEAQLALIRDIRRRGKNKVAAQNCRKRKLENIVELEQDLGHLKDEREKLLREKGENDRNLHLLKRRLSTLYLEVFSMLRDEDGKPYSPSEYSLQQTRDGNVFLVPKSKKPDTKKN

Rattus norvegicus [15] = experiment: Induction of glutathione S-transferase activity in cytosolic fraction of Wistar rat colon at 15 mg/kg/day, po for two weeks using CDNB as substrate measured for 1 min relative to control; type: functional
Salmonella typhimurium [16] = experiment: Mutagenicity in Salmonella typhimurium TA98 assessed as revertant colonies at 0.5 to 40 ug/plate by Ames test in presence of mouse liver S9 fraction; type: toxicity, organism-based; conditions: salmonella enterica subsp. enterica serovar typhimurium
Mus musculus [17] = species on record: Mus musculus; experiment: Induction of quinone reductase specific activity in mouse mutant BpRc1 cells expressing defective translocator receptor Arnt using 2,6-DCIP as substrate at 10 uM measured for 1 min relative to control; type: cell-based
[18] = Cytotoxicity against mouse mutant BpRc1 cells after 48 hrs by SRB assay; type: cell-based; conditions: BPrc1, 48 h
[19] = Cytotoxicity against mouse Hepa1c1c7 cells after 48 hrs by SRB assay; type: cell-based; conditions: Hepa-1c1c7, 48 h
Mus musculus [20] = species on record: Mus musculus; experiment: Induction of quinone reductase specific activity in mouse Hepa1c1c7 cells using 2,6-DCIP as substrate at 10 uM measured for 1 min relative to control; type: cell-based
Mus musculus [21] = species on record: Mus musculus; experiment: Ratio of quinone reductase specific activity in mouse Hepa1c1c7 cells to quinone reductase specific activity in mouse mutant BpRc1 cells; type: cell-based
Salmonella typhimurium [22] = experiment: Mutagenicity in Salmonella typhimurium TA98 assessed as revertant colonies at 0.5 to 40 ug/plate by Ames test in absence of mouse liver S9 fraction; type: toxicity, organism-based; conditions: salmonella enterica subsp. enterica serovar typhimurium
Salmonella typhimurium [23] = experiment: Mutagenicity in Salmonella typhimurium TA98 assessed as revertant colonies at 2 to 167 ug/plate by Ames test in presence of mouse liver S9 fraction; type: toxicity, organism-based; conditions: salmonella enterica subsp. enterica serovar typhimurium
Salmonella typhimurium [24] = experiment: Mutagenicity in Salmonella typhimurium TA98 assessed as revertant colonies at 2 to 167 ug/plate by Ames test in absence of mouse liver S9 fraction; type: toxicity, organism-based; conditions: salmonella enterica subsp. enterica serovar typhimurium
Salmonella typhimurium [25] = experiment: Mutagenicity in Salmonella typhimurium TA98 assessed as revertant colonies at 6 to 500 ug/plate by Ames test in absence of mouse liver S9 fraction; type: toxicity, organism-based; conditions: salmonella enterica subsp. enterica serovar typhimurium
Salmonella typhimurium [26] = experiment: Mutagenicity in Salmonella typhimurium TA98 assessed as revertant colonies at 6 to 500 ug/plate by Ames test in presence of mouse liver S9 fraction; type: toxicity, organism-based; conditions: salmonella enterica subsp. enterica serovar typhimurium
Salmonella typhimurium [27] = experiment: Mutagenicity in Salmonella typhimurium TA98 assessed as revertant colonies at 5 to 400 ug/plate by Ames test in presence of mouse liver S9 fraction; type: toxicity, organism-based; conditions: salmonella enterica subsp. enterica serovar typhimurium
Salmonella typhimurium [28] = experiment: Mutagenicity in Salmonella typhimurium TA98 assessed as revertant colonies at 5 to 400 ug/plate by Ames test in absence of mouse liver S9 fraction; type: toxicity, organism-based; conditions: salmonella enterica subsp. enterica serovar typhimurium
Salmonella typhimurium [29] = experiment: Mutagenicity in Salmonella typhimurium TA98 assessed as revertant colonies at 0.5 to 30 ug/plate by Ames test in presence of mouse liver S9 fraction; type: toxicity, organism-based; conditions: salmonella enterica subsp. enterica serovar typhimurium
Salmonella typhimurium [30] = experiment: Mutagenicity in Salmonella typhimurium TA98 assessed as revertant colonies at 0.5 to 30 ug/plate by Ames test in absence of mouse liver S9 fraction; type: toxicity, organism-based; conditions: salmonella enterica subsp. enterica serovar typhimurium
Salmonella typhimurium [31] = experiment: Mutagenicity in Salmonella typhimurium TA98 assessed as revertant colonies at 0.02 to 2 ug/plate by Ames test in absence of mouse liver S9 fraction; type: toxicity, organism-based; conditions: salmonella enterica subsp. enterica serovar typhimurium
Salmonella typhimurium [32] = experiment: Mutagenicity in Salmonella typhimurium TA98 assessed as revertant colonies at 0.02 to 2 ug/plate by Ames test in presence of mouse liver S9 fraction; type: toxicity, organism-based; conditions: salmonella enterica subsp. enterica serovar typhimurium

| Structure (SMILES) | Activity (Rattus norvegicus [2]) | survival at 2 weeks [6] [%] | Activity (MCF7) | Activity (HT-29) | Activity (Rattus norvegicus [9]) | Activity (Rattus norvegicus [13]) | fold change (FC) (Mus musculus [17]) | fold change (FC) (Mus musculus [20]) | Ratio (Mus musculus [21]) | other results |
| --- | --- | --- | --- | --- | --- | --- | --- | --- | --- | --- |
| O=C(/C=C/c1c(-c2ccccc2)no[n+]1[O-])c1ccccc1O | Non-toxic | 100 | Active | Active | 80% | Non-toxic | 1.82 | 3.01 | 1.65 | Activity (Rattus norvegicus [1]): 40%; Ratio (Mus musculus [3]): 1.5; Ratio [4]: 5; CD (Mus musculus [5]): 8 µM; Ratio [7]: 3.2; Activity (Rattus norvegicus [8]): Active; Activity (Rattus norvegicus [10]): Active; CD (Mus musculus [11]): 12 µM; Activity (Rattus norvegicus [12]): 110%; Activity [14]: Active; Activity (Rattus norvegicus [15]): Active; Activity (Salmonella typhimurium [16]): Non-toxic; IC50 [18]: 38 µM; IC50 [19]: 40 µM; Activity (Salmonella typhimurium [22]): Non-toxic |
| O=c1cc(-c2ccc(Br)cc2)oc2ccccc12 |  |  |  |  |  |  | 1.49 | 4.45 | 2.99 | Ratio (Mus musculus [3]): 100; Ratio [4]: 107; CD (Mus musculus [5]): 0.79 µM; Ratio [7]: 1.9; CD (Mus musculus [11]): 80 µM; IC50 [18]: 150 µM; IC50 [19]: 85 µM |
| O=C(/C=C/c1ccc(Br)cc1)c1ccccc1O | Non-toxic | 100 |  |  | 128% | Non-toxic |  |  |  |  |
| O=C(/C=C/c1ccc2c(c1)no[n+]2[O-])c1ccccc1 |  |  | Active | Active |  |  | 1.7 | 1.01 | 0.59 | Activity (Salmonella typhimurium [23]): Non-toxic; Activity (Salmonella typhimurium [24]): Toxic |
| COc1ccc(/C=C/C(=O)c2ccccc2)cc1 [4-METHOXY CHALCONE] | Non-toxic | 100 |  |  | Active | Non-toxic |  |  |  |  |
| O=C(/C=C/c1ccccc1)c1ccccc1O [2'-HYDROXYCHALCONE] | Non-toxic | 100 |  |  | Active | Non-toxic |  |  |  | Activity (Rattus norvegicus [12]): Active |
| O=C(/C=C/c1ccc2c(c1)no[n+]2[O-])c1ccc2ccccc2c1 |  |  | Active | Active |  |  | 1.01 | 1.77 | 1.75 |  |
| Cc1c(/C=C/C(=O)c2ccccc2O)no[n+]1[O-] |  |  | Active | Active |  |  | 1.18 | 1.49 | 1.26 | Activity (Salmonella typhimurium [25]): Non-toxic; Activity (Salmonella typhimurium [26]): Non-toxic |
| O=C(/C=C/c1c(-c2ccccc2)no[n+]1[O-])c1ccccc1 | Non-toxic | 100 | Active | Active | 110% | Non-toxic | 1.58 | 1.9 | 1.2 | Activity (Rattus norvegicus [1]): 60%; Ratio (Mus musculus [3]): 1.1; Ratio [4]: 3; Activity (Salmonella typhimurium [27]): Non-toxic; CD (Mus musculus [5]): 12 µM; Ratio [7]: 2.9; Activity (Rattus norvegicus [8]): 12%; Activity (Rattus norvegicus [10]): Not Active; Activity (Salmonella typhimurium [28]): Non-toxic; CD (Mus musculus [11]): 13 µM; Activity (Rattus norvegicus [12]): 180%; Activity [14]: Active; Activity (Rattus norvegicus [15]): 13%; IC50 [18]: 38 µM; IC50 [19]: 36 µM |
| Cc1c(/C=C/C(=O)c2ccc3ccccc3c2)no[n+]1[O-] |  |  | Active | Active |  |  | 0.99 | 1.49 | 1.5 | Activity (Salmonella typhimurium [25]): Non-toxic; Activity (Salmonella typhimurium [26]): Non-toxic |
| O=C(/C=C/c1ccc2c(c1)no[n+]2[O-])c1ccccc1O |  |  |  |  |  |  | 1.18 | 1.39 | 1.18 | Activity (Salmonella typhimurium [25]): Non-toxic; Activity (Salmonella typhimurium [26]): Non-toxic |
| CC(C)(C)c1cc(O)ccc1O [E319] |  |  |  |  |  |  |  |  |  | Ratio (Mus musculus [3]): 6; Ratio [4]: 147; CD (Mus musculus [5]): 1 µM; Ratio [7]: 10; CD (Mus musculus [11]): 6 µM; Activity [14]: Active; IC50 [18]: 60 µM; IC50 [19]: 147 µM |
| O=C(/C=C/c1c(-c2ccccc2)no[n+]1[O-])c1ccc2ccccc2c1 |  |  |  |  |  |  | 1.06 | 2.49 | 2.35 | Activity (Salmonella typhimurium [29]): Non-toxic; Activity (Salmonella typhimurium [30]): Non-toxic |
| Cc1c(/C=C/C(=O)c2ccccc2)no[n+]1[O-] |  |  | Active | Active |  |  | 1.01 | 1.35 | 1.34 | Activity (Salmonella typhimurium [31]): Non-toxic; Activity (Salmonella typhimurium [32]): Non-toxic |
